In PMC7311426, “An amphipathic peptide with antibiotic activity against multidrug-resistant Gram-negative bacteria” (Nature Communications, 2020):
Converted amounts (≈) assume the structure as drawn. Residues, ends and D or L forms follow the SMILES beside them.

How the values were obtained:
Assay in all cases: microbe, parasite or virus in culture
P. aeruginosa = system: P. aeruginosa
Summary of the method: (§1)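 Broth microdilution in MHB, 2-fold 12-point series from 128 or 64 down to 0.06 or 0.03 μg mL^−1, 5 × 10^5 CFU mL^−1. Extra runs in CAMHB per CLSI and in MHB with 1% agarose; n ≥ 6.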

S. aureus = settings: BMD; range over strains and media
Summary of the method: as §1

S. enterica Typhi = settings: Typhi
Summary of the method: as §1

[1] = system: A. baumannii clinical isolates; settings: clinical isolates
Summary of the method: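 MIC90 from CLSI broth microdilution (M07-A9) in two clinical-isolate panels. US panel (331 isolates, 2010-2012): AA139 diluted in 0.01% acetic acid/0.1% BSA. Worldwide panel (445 isolates, 2011-2013, four regions): CAMHB, with 0.002% Tween 80 added for AA139 and polymyxin B.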

SMILES: CC(C)[C@@H]1NC(=O)[C@H](Cc2ccc(O)cc2)NC(=O)[C@H](Cc2c[nH]c3ccccc23)NC(=O)[C@@H](NC(=O)[C@H](Cc2ccccc2)NC(=O)CN)CSSC[C@@H](C(=O)N[C@@H](CC(N)=O)C(=O)O)NC(=O)[C@H](CCCNC(=N)N)NC(=O)[C@H](CCCNC(=N)N)NC(=O)[C@H](Cc2ccc(O)cc2)NC(=O)[C@@H]2CSSC[C@H](NC1=O)C(=O)N[C@@H](C)C(=O)N[C@@H](CCCNC(=N)N)C(=O)N[C@@H](CCCNC(=N)N)C(=O)N[C@@H](CC(N)=O)C(=O)NCC(=O)N[C@@H](C)C(=O)N[C@@H](CCCNC(=N)N)C(=O)N[C@@H](C(C)C)C(=O)N2 [AA139] (HELM PEPTIDE1{G.F.C.W.Y.V.C.A.R.R.N.G.A.R.V.C.Y.R.R.C.N}$PEPTIDE1,PEPTIDE1,3:R3-20:R3|PEPTIDE1,PEPTIDE1,7:R3-16:R3$$$V2.0)
- MIC, broth microdilution (P. aeruginosa; P. aeruginosa ATCC 27853 spontaneous mutant, AA139 selection 8X, plate 1, colony 1, drug-free passage 1): 1, 1 µg/mL
- MIC, broth microdilution (P. aeruginosa; P. aeruginosa ATCC 27853 spontaneous mutant, AA139 selection 8X, plate 1, colony 1, drug-free passage 5): 1, 1 µg/mL
- MIC, broth microdilution (P. aeruginosa; P. aeruginosa ATCC 27853 spontaneous mutant, AA139 selection 8X, plate 1, colony 2, drug-free passage 1): 1 µg/mL (≈ 0.392 µM)
- MIC, broth microdilution (P. aeruginosa; P. aeruginosa ATCC 27853 spontaneous mutant, AA139 selection 8X, plate 1, colony 2, drug-free passage 5): 2 µg/mL (≈ 0.784 µM)
- MIC, broth microdilution (P. aeruginosa; P. aeruginosa ATCC 27853 spontaneous mutant, AA139 selection 8X, plate 1, colony 3, drug-free passage 1): 1, 1 µg/mL
- MIC, broth microdilution (P. aeruginosa; P. aeruginosa ATCC 27853 spontaneous mutant, AA139 selection 8X, plate 1, colony 3, drug-free passage 5): 1, 1 µg/mL
- MIC, broth microdilution (P. aeruginosa; P. aeruginosa ATCC 27853 spontaneous mutant, AA139 selection 8X, plate 1, colony 4, drug-free passage 1): 1, 1 µg/mL
- MIC, broth microdilution (P. aeruginosa; P. aeruginosa ATCC 27853 spontaneous mutant, AA139 selection 8X, plate 1, colony 4, drug-free passage 5): 1, 1 µg/mL
- MIC, broth microdilution (P. aeruginosa; P. aeruginosa ATCC 27853 spontaneous mutant, AA139 selection 8X, plate 1, colony 5, drug-free passage 1): 1, 1 µg/mL
- MIC, broth microdilution (P. aeruginosa; P. aeruginosa ATCC 27853 spontaneous mutant, AA139 selection 8X, plate 1, colony 5, drug-free passage 5): 1, 1 µg/mL
- BMD MIC (P. aeruginosa; P. aeruginosa FADDI-070, MDR, PmxR, MHB/CAMHB, mode of 6 replicates): 2 µg/mL
- MIC, broth microdilution (P. aeruginosa; P. aeruginosa UNT 138-1 spontaneous mutant, AA139 selection 4X, plate 1, colony 1, drug-free passage 1): 2, 2 µg/mL
- MIC, broth microdilution (P. aeruginosa; P. aeruginosa UNT 138-1 spontaneous mutant, AA139 selection 4X, plate 1, colony 1, drug-free passage 5): 2, 2 µg/mL
- MIC, broth microdilution (P. aeruginosa; P. aeruginosa UNT 138-1 spontaneous mutant, AA139 selection 4X, plate 1, colony 2, drug-free passage 1): 1, 1 µg/mL
- MIC, broth microdilution (P. aeruginosa; P. aeruginosa UNT 138-1 spontaneous mutant, AA139 selection 4X, plate 1, colony 2, drug-free passage 5): 1, 1 µg/mL
- MIC, broth microdilution (P. aeruginosa; P. aeruginosa UNT 138-1 spontaneous mutant, AA139 selection 4X, plate 1, colony 3, drug-free passage 1): 1, 1 µg/mL
- MIC, broth microdilution (P. aeruginosa; P. aeruginosa UNT 138-1 spontaneous mutant, AA139 selection 4X, plate 1, colony 3, drug-free passage 5): 1, 1 µg/mL
- MIC, broth microdilution (P. aeruginosa; P. aeruginosa UNT 138-1 spontaneous mutant, AA139 selection 4X, plate 1, colony 4, drug-free passage 1): 1, 1 µg/mL
- MIC, broth microdilution (P. aeruginosa; P. aeruginosa UNT 138-1 spontaneous mutant, AA139 selection 4X, plate 1, colony 4, drug-free passage 5): 1, 1 µg/mL
- MIC, broth microdilution (P. aeruginosa; P. aeruginosa UNT 138-1 spontaneous mutant, AA139 selection 4X, plate 1, colony 5, drug-free passage 1): 2 µg/mL (≈ 0.784 µM)
- MIC, broth microdilution (P. aeruginosa; P. aeruginosa UNT 138-1 spontaneous mutant, AA139 selection 4X, plate 1, colony 5, drug-free passage 5): 1 µg/mL (≈ 0.392 µM)
- MIC, broth microdilution (P. aeruginosa; P. aeruginosa UNT 138-1 spontaneous mutant, AA139 selection 4X, plate 1, colony 6, drug-free passage 1): 2 µg/mL (≈ 0.784 µM)
- MIC, broth microdilution (P. aeruginosa; P. aeruginosa UNT 138-1 spontaneous mutant, AA139 selection 4X, plate 1, colony 6, drug-free passage 5): 1 µg/mL (≈ 0.392 µM)
- MIC, broth microdilution (P. aeruginosa; P. aeruginosa UNT 138-1 spontaneous mutant, AA139 selection 4X, plate 1, colony 7, drug-free passage 1): 2 µg/mL (≈ 0.784 µM)
- MIC, broth microdilution (P. aeruginosa; P. aeruginosa UNT 138-1 spontaneous mutant, AA139 selection 4X, plate 1, colony 7, drug-free passage 5): 1 µg/mL (≈ 0.392 µM)
- MIC, broth microdilution (P. aeruginosa; P. aeruginosa UNT 138-1 spontaneous mutant, AA139 selection 4X, plate 2, colony 1, drug-free passage 1): 2, 2 µg/mL
- MIC, broth microdilution (P. aeruginosa; P. aeruginosa UNT 138-1 spontaneous mutant, AA139 selection 4X, plate 2, colony 1, drug-free passage 5): 2, 2 µg/mL
- MIC, broth microdilution (P. aeruginosa; P. aeruginosa UNT 138-1 spontaneous mutant, AA139 selection 4X, plate 2, colony 2, drug-free passage 1): 2 µg/mL (≈ 0.784 µM)
- MIC, broth microdilution (P. aeruginosa; P. aeruginosa UNT 138-1 spontaneous mutant, AA139 selection 4X, plate 2, colony 2, drug-free passage 5): 1 µg/mL (≈ 0.392 µM)
- MIC, broth microdilution (P. aeruginosa; P. aeruginosa UNT 138-1 spontaneous mutant, AA139 selection 4X, plate 2, colony 3, drug-free passage 1): 2, 2 µg/mL
- MIC, broth microdilution (P. aeruginosa; P. aeruginosa UNT 138-1 spontaneous mutant, AA139 selection 4X, plate 2, colony 3, drug-free passage 5): 2, 2 µg/mL
- MIC, broth microdilution (P. aeruginosa; P. aeruginosa UNT 138-1 spontaneous mutant, AA139 selection 4X, plate 2, colony 4, drug-free passage 1): 2 µg/mL (≈ 0.784 µM)
- MIC, broth microdilution (P. aeruginosa; P. aeruginosa UNT 138-1 spontaneous mutant, AA139 selection 4X, plate 2, colony 4, drug-free passage 5): 1 µg/mL (≈ 0.392 µM)
- MIC, broth microdilution (P. aeruginosa; P. aeruginosa UNT 138-1 spontaneous mutant, AA139 selection 4X, plate 2, colony 5, drug-free passage 1): 2 µg/mL (≈ 0.784 µM)
- MIC, broth microdilution (P. aeruginosa; P. aeruginosa UNT 138-1 spontaneous mutant, AA139 selection 4X, plate 2, colony 5, drug-free passage 5): 1 µg/mL (≈ 0.392 µM)
- MIC, broth microdilution (P. aeruginosa; P. aeruginosa UNT 138-1 spontaneous mutant, AA139 selection 4X, plate 2, colony 6, drug-free passage 1): 2 µg/mL (≈ 0.784 µM)
- MIC, broth microdilution (P. aeruginosa; P. aeruginosa UNT 138-1 spontaneous mutant, AA139 selection 4X, plate 2, colony 6, drug-free passage 5): 1 µg/mL (≈ 0.392 µM)
- MIC, broth microdilution (P. aeruginosa; P. aeruginosa UNT 138-1 spontaneous mutant, AA139 selection 4X, plate 2, colony 7, drug-free passage 1): 2 µg/mL (≈ 0.784 µM)
- MIC, broth microdilution (P. aeruginosa; P. aeruginosa UNT 138-1 spontaneous mutant, AA139 selection 4X, plate 2, colony 7, drug-free passage 5): 1 µg/mL (≈ 0.392 µM)
- MIC, broth microdilution (P. aeruginosa; P. aeruginosa UNT 138-1 spontaneous mutant, AA139 selection 8X, plate 1, colony 1, drug-free passage 1): 2 µg/mL (≈ 0.784 µM)
- MIC, broth microdilution (P. aeruginosa; P. aeruginosa UNT 138-1 spontaneous mutant, AA139 selection 8X, plate 1, colony 1, drug-free passage 5): 1 µg/mL (≈ 0.392 µM)
- MIC, broth microdilution (P. aeruginosa; P. aeruginosa UNT 138-1 spontaneous mutant, AA139 selection 8X, plate 1, colony 2, drug-free passage 1): 1, 1 µg/mL
- MIC, broth microdilution (P. aeruginosa; P. aeruginosa UNT 138-1 spontaneous mutant, AA139 selection 8X, plate 1, colony 2, drug-free passage 5): 1, 1 µg/mL
- MIC, broth microdilution (P. aeruginosa; P. aeruginosa UNT 138-1 spontaneous mutant, AA139 selection 8X, plate 1, colony 3, drug-free passage 1): 1, 1 µg/mL
- MIC, broth microdilution (P. aeruginosa; P. aeruginosa UNT 138-1 spontaneous mutant, AA139 selection 8X, plate 1, colony 3, drug-free passage 5): 1, 1 µg/mL
- MIC, broth microdilution (P. aeruginosa; P. aeruginosa UNT 138-1 spontaneous mutant, AA139 selection 8X, plate 1, colony 4, drug-free passage 1): 2, 2 µg/mL
- MIC, broth microdilution (P. aeruginosa; P. aeruginosa UNT 138-1 spontaneous mutant, AA139 selection 8X, plate 1, colony 4, drug-free passage 5): 2, 2 µg/mL
- MIC, broth microdilution (P. aeruginosa; P. aeruginosa UNT 138-1 spontaneous mutant, AA139 selection 8X, plate 1, colony 5, drug-free passage 1): 1 µg/mL (≈ 0.392 µM)
- MIC, broth microdilution (P. aeruginosa; P. aeruginosa UNT 138-1 spontaneous mutant, AA139 selection 8X, plate 1, colony 5, drug-free passage 5): 2 µg/mL (≈ 0.784 µM)
- MIC, broth microdilution (P. aeruginosa; P. aeruginosa UNT 138-1 spontaneous mutant, AA139 selection 8X, plate 2, colony 1, drug-free passage 1): 1, 1 µg/mL
- MIC, broth microdilution (P. aeruginosa; P. aeruginosa UNT 138-1 spontaneous mutant, AA139 selection 8X, plate 2, colony 1, drug-free passage 5): 1, 1 µg/mL
- MIC against Staphylococcus aureus (S. aureus): 32 to 64 µg/mL
- BMD MIC (S. enterica Typhi): 0.5 µg/mL
- MIC90 (A. baumannii) [1]: 2.0 µg/mL (≈ 0.784 µM)
- MIC against colistin-resistant isolates (did not surpass) [1]: ≤ 2 µg/mL
